Measurements reported in PMC11864979, “First-in-class ultralong-target-residence-time p38α inhibitors as a mitosis-targeted therapy for colorectal cancer” (Nature Cancer, 2025).
Read-outs that look alike come from different tables or passages of the source.

Experiments:
Assay in all cases: selectivity profiling in a panel of 340 wild-type kinases (Reaction Biology Europe)
Assay type in all cases: binding
340 wild-type kinases [1] = biological target: T1, 340 wild-type kinases (Homo sapiens, UniProt O15146)
T1 construct: purchased Reaction Biology Europe
T1 sequence (O15146 24-869): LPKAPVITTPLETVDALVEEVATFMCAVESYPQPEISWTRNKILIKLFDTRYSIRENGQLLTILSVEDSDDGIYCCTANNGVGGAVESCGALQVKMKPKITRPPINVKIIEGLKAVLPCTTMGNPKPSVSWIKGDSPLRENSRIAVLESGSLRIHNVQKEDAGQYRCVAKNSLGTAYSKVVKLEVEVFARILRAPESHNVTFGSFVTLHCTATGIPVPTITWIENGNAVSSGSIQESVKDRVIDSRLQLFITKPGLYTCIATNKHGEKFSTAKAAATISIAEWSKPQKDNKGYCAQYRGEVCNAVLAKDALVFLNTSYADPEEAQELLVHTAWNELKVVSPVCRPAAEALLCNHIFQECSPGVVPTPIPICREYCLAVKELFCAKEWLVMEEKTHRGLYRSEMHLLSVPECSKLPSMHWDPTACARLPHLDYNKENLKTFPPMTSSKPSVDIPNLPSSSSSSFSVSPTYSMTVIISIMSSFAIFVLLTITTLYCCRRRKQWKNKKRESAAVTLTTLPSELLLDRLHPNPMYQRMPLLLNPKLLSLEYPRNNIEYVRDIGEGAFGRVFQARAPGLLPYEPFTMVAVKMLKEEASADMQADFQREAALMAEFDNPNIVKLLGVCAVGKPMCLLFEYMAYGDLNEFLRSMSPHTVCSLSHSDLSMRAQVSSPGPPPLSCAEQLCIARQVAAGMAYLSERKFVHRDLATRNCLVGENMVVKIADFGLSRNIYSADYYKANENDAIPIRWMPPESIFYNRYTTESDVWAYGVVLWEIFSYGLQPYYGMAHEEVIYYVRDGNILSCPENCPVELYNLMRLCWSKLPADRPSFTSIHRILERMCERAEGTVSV

340 wild-type kinases [2] = biological target: T2, 340 wild-type kinases (Homo sapiens, UniProt P51955)
T2 construct: purchased Reaction Biology Europe
T2 sequence (P51955 1-445): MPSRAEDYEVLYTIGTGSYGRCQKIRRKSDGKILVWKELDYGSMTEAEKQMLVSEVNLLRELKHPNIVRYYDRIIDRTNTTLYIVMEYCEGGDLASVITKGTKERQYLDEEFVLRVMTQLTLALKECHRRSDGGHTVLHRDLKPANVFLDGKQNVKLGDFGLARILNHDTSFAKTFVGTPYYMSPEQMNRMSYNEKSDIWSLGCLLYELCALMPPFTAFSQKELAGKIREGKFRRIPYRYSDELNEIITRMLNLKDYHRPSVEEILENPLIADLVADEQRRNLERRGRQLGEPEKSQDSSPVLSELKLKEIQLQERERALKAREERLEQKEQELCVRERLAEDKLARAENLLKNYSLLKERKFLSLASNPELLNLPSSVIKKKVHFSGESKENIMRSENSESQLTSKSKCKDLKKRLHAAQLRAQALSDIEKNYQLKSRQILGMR

340 wild-type kinases [3] = biological target: T3, 340 wild-type kinases (Homo sapiens, UniProt P54753)
T3 construct: purchased Reaction Biology Europe
T3 sequence (P54753 34-998): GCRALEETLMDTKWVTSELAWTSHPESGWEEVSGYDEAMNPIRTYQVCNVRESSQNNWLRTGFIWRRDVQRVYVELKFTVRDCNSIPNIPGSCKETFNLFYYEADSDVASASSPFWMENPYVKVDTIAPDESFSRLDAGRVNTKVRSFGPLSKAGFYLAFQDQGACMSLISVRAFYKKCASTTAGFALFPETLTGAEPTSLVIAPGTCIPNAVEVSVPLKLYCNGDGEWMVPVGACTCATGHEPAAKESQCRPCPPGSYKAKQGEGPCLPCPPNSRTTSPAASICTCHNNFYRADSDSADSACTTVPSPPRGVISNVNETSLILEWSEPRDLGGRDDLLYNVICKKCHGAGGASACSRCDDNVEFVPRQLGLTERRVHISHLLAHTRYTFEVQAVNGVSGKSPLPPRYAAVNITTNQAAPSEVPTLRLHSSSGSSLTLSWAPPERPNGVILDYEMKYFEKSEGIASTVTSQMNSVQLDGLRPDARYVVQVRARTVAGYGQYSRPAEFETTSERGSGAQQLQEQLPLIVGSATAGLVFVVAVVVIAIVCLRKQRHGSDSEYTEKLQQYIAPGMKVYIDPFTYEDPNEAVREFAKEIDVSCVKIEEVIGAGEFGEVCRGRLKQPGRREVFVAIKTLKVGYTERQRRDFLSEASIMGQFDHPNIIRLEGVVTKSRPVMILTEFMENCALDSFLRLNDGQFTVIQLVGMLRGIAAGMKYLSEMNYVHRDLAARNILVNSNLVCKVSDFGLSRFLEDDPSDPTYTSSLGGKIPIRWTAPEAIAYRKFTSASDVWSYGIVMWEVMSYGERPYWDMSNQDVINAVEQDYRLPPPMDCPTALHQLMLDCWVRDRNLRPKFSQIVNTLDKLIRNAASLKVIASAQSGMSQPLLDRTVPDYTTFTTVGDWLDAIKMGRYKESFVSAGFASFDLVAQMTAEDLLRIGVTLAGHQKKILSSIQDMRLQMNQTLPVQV

340 wild-type kinases [4] = biological target: T4, 340 wild-type kinases (Homo sapiens, UniProt Q07912)
T4 construct: purchased Reaction Biology Europe

340 wild-type kinases [5] = biological target: T5, 340 wild-type kinases (Homo sapiens, UniProt Q13557)
T5 construct: purchased Reaction Biology Europe

340 wild-type kinases [6] = biological target: T6, 340 wild-type kinases (Homo sapiens, UniProt Q13627)
T6 construct: purchased Reaction Biology Europe

340 wild-type kinases [7] = biological target: T7, 340 wild-type kinases (Homo sapiens, UniProt Q9P1W9)
T7 construct: purchased Reaction Biology Europe
T7 sequence (Q9P1W9 whole entry): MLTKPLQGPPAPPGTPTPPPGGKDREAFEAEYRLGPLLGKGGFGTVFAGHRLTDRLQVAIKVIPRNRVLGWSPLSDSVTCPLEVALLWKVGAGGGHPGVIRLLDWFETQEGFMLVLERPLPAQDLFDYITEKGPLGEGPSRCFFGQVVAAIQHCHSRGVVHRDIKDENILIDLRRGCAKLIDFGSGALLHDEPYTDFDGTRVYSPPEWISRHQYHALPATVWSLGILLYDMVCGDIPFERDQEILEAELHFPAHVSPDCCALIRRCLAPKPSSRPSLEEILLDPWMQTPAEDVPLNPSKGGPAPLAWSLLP

T4 sequence (Q07912 whole entry): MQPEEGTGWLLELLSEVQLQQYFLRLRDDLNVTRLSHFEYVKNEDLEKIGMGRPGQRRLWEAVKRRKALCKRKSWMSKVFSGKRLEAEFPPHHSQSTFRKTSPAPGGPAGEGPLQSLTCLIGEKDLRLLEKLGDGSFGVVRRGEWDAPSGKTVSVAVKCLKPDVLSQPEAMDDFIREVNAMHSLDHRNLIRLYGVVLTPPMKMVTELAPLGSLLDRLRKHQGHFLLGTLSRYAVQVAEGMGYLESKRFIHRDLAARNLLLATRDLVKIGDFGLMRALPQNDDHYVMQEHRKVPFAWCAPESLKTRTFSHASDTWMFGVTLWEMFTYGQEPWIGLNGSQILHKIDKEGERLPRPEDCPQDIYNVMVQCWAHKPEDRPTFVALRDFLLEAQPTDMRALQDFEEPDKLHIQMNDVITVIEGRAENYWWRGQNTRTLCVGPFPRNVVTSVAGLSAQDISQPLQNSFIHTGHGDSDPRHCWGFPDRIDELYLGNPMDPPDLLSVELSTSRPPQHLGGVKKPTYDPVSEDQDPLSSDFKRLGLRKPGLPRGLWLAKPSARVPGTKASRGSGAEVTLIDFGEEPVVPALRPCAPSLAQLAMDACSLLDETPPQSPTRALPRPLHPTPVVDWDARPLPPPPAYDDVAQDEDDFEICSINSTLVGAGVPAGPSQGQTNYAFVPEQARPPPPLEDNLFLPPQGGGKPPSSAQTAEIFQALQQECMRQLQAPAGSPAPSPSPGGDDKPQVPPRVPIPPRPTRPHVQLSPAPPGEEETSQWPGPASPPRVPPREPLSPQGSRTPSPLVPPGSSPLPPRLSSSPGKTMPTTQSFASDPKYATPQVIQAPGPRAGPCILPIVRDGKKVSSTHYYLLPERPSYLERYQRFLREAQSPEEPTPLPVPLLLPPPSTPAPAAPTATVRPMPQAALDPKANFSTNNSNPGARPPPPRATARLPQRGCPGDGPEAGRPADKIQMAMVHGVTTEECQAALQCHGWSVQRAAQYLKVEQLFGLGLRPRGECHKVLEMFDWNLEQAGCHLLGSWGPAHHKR
T5 sequence (Q13557 whole entry): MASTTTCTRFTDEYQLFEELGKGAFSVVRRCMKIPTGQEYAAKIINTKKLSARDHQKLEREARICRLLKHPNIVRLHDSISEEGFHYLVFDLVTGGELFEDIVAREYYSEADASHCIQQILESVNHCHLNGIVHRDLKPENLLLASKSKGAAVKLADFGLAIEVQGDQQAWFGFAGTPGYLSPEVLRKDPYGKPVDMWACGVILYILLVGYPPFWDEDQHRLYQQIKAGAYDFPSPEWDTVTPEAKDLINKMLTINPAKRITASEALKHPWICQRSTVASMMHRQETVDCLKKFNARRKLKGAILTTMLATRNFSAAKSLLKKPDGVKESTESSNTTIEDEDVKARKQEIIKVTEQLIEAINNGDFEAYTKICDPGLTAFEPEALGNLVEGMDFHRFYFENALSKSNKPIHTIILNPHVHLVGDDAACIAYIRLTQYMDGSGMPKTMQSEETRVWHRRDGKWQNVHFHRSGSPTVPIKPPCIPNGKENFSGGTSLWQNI

## CNC(=O)c1ccc2c(c1)C(=O)c1ccc(Nc3ccc(F)c(NC(=O)C4CC4)c3)cc1CC2 [Compound 2015]
340 wild-type kinases [1]; 0.2 µM 2015, read-out: MUSK residual activity
  remaining activity at 0.2 µM: 87.5%
340 wild-type kinases [1]; 1 µM 2015, read-out: MUSK residual activity
  remaining activity at 1 µM: 87.3%
340 wild-type kinases [1]; MUSK, 0.2 µM, read-out: residual activity
  remaining activity at 0.2 µM: 87.5%
340 wild-type kinases [1]; MUSK, 1 µM, read-out: residual activity
  remaining activity at 1 µM: 87.3%
340 wild-type kinases [2]; 0.2 µM 2015, read-out: NEK2 residual activity
  remaining activity at 0.2 µM: 104%
340 wild-type kinases [2]; 1 µM 2015, read-out: NEK2 residual activity
  remaining activity at 1 µM: 95%
340 wild-type kinases [2]; NEK2, 0.2 µM, read-out: residual activity
  remaining activity at 0.2 µM: 104%
340 wild-type kinases [2]; NEK2, 1 µM, read-out: residual activity
  remaining activity at 1 µM: 95%
340 wild-type kinases [3]; 0.2 µM 2015, read-out: EPHB3 residual activity
  remaining activity at 0.2 µM: 97.2%
340 wild-type kinases [3]; 1 µM 2015, read-out: EPHB3 residual activity
  remaining activity at 1 µM: 96.8%
340 wild-type kinases [3]; EPHB3, 0.2 µM, read-out: residual activity
  remaining activity at 0.2 µM: 97.2%
340 wild-type kinases [3]; EPHB3, 1 µM, read-out: residual activity
  remaining activity at 1 µM: 96.8%
340 wild-type kinases [4]; 0.2 µM 2015, read-out: ACK1 residual activity
  remaining activity at 0.2 µM: 110%
340 wild-type kinases [4]; 1 µM 2015, read-out: ACK1 residual activity
  remaining activity at 1 µM: 108%
340 wild-type kinases [4]; ACK1, 0.2 µM, read-out: residual activity
  remaining activity at 0.2 µM: 110%
340 wild-type kinases [4]; ACK1, 1 µM, read-out: residual activity
  remaining activity at 1 µM: 108%
340 wild-type kinases [5]; 0.2 µM 2015, read-out: CAMK2D residual activity
  remaining activity at 0.2 µM: 98.1%
340 wild-type kinases [5]; 1 µM 2015, read-out: CAMK2D residual activity
  remaining activity at 1 µM: 95.7%
340 wild-type kinases [5]; CAMK2D, 0.2 µM, read-out: residual activity
  remaining activity at 0.2 µM: 98.1%
340 wild-type kinases [5]; CAMK2D, 1 µM, read-out: residual activity
  remaining activity at 1 µM: 95.7%
340 wild-type kinases [6]; 0.2 µM 2015, read-out: DYRK1A residual activity
  remaining activity at 0.2 µM: 86.7%
340 wild-type kinases [6]; 1 µM 2015, read-out: DYRK1A residual activity
  remaining activity at 1 µM: 90.3%
340 wild-type kinases [6]; DYRK1A, 0.2 µM, read-out: residual activity
  remaining activity at 0.2 µM: 86.8%
340 wild-type kinases [6]; DYRK1A, 1 µM, read-out: residual activity
  remaining activity at 1 µM: 90.3%
340 wild-type kinases [7]; 0.2 µM 2015, read-out: PIM2 residual activity
  remaining activity at 0.2 µM: 119%
340 wild-type kinases [7]; 1 µM 2015, read-out: PIM2 residual activity
  remaining activity at 1 µM: 98.6%
340 wild-type kinases [7]; PIM2, 0.2 µM, read-out: residual activity
  remaining activity at 0.2 µM: 119%
340 wild-type kinases [7]; PIM2, 1 µM, read-out: residual activity
  remaining activity at 1 µM: 98.6%
